Reference: ChEMBL document CHEMBL5321233, “Biological activity of 1,2,3-triazole-2-amino-1,4-naphthoquinone derivatives and their evaluation as therapeutic strategy for malaria control” (Eur J Med Chem, 2023)
pIC50: −log10 of the molar value. Calls of active or inactive are those of the source. No cut-off for these calls is given here.

Assays:
Plasmodium falciparum [1] = assay: Antimalarial activity against chloroquine-resistant Plasmodium falciparum W2 infected in human erythrocytes assessed as parasite growth inhibition incubated for 48 hrs by geimsa staining based microscopy; assay type: functional, organism-based; details: W2, Erythrocyte
HepG2 = assay: Cytotoxicity against human HepG2 cells incubated for 24 hrs by MTT assay; assay type: functional
[2] = Cytotoxicity against African green monkey Vero cells incubated for 24 hrs by MTT assay; assay type: toxicity, cell-based; details: chlorocebus sabaeus
[3] = Selectivity index, ratio of CC50 for human HepG2 cells to IC50 for chloroquine-resistant Plasmodium falciparum W2 infected in human erythrocytes; assay type: toxicity, cell-based; details: read-out: Ratio CC50/IC50
[4] = Selectivity index, ratio of CC50 for African green monkey Vero cells to IC50 for chloroquine-resistant Plasmodium falciparum W2 infected in human erythrocytes; assay type: toxicity, cell-based; details: read-out: Ratio CC50/IC50
[5] = Octanol-water partition coefficient, logP of the compound; assay type: physicochemical
[6] = Hemolytic activity in human red blood cells assessed as hemoglobin release at 250 to 15.6 uM incubated for 60 mins by spectrophotometry; assay type: toxicity, cell-based, Erythrocyte; details: dose 250-15.6 µM, read-out: Activity
[7] = Hemolytic activity in human red blood cells type A assessed as hemoglobin release at 500 to 1000 uM incubated for 60 mins by spectrophotometry; assay type: toxicity, cell-based, Erythrocyte; details: dose 500-1000 µM, read-out: Activity
Plasmodium falciparum [8] = assay: Induction of morphological changes in chloroquine-resistant Plasmodium falciparum W2 at early trophozoite stage assessed as rounded nucleus with degenerative changes by TEM analysis; assay type: functional, organism-based
Plasmodium falciparum [9] = assay: Induction of morphological changes in chloroquine-resistant Plasmodium falciparum W2 at early trophozoite stage assessed as degenerating organelles by TEM analysis; assay type: functional, organism-based
Plasmodium falciparum [10] = assay: Induction of morphological changes in chloroquine-resistant Plasmodium falciparum W2 at early trophozoite stage assessed as development-limiting of parasitophorous vacuole membrane by TEM analysis; assay type: functional, organism-based
Plasmodium falciparum [11] = assay: Induction of morphological changes in chloroquine-resistant Plasmodium falciparum W2 at early trophozoite stage assessed as development-limiting of plasma membrane by TEM analysis; assay type: functional, organism-based
[12] = Acute toxicity in Albino Swiss mouse assessed as animal mortality at 300 mg/kg, po administered as single dose measured after 14 days; assay type: organism-based; details: in vivo, 336 h, time 14 day
[13] = Acute toxicity in Albino Swiss mouse assessed as signs of toxicity at 300 mg/kg, po administered as single dose measured after 14 days; assay type: organism-based; details: in vivo, 336 h, time 14 day
[14] = Acute toxicity in Albino Swiss mouse assessed as behavioural toxicity at 300 mg/kg, po administered as single dose measured after 14 days; assay type: organism-based; details: in vivo, 336 h, time 14 day
[15] = Acute toxicity in Albino Swiss mouse assessed as change in motor function at 300 mg/kg, po administered as single dose measured after 14 days; assay type: organism-based; details: in vivo, 336 h, time 14 day
[16] = Acute toxicity in Albino Swiss mouse assessed as change in sensory function at 300 mg/kg, po administered as single dose measured after 14 days; assay type: organism-based; details: in vivo, 336 h, time 14 day
[17] = Acute toxicity in Albino Swiss mouse assessed as signs of pallor at 300 mg/kg, po administered as single dose measured after 14 days; assay type: organism-based; details: in vivo, 336 h, time 14 day
[18] = Acute toxicity in Albino Swiss mouse assessed as signs of cyanosis at 300 mg/kg, po administered as single dose measured after 14 days; assay type: organism-based; details: in vivo, 336 h, time 14 day
[19] = Acute toxicity in Albino Swiss mouse assessed as signs of hyperemia at 300 mg/kg, po administered as single dose measured after 14 days; assay type: organism-based; details: in vivo, 336 h, time 14 day
[20] = Acute toxicity in Albino Swiss mouse assessed as change in urination volume at 300 mg/kg, po administered as single dose measured after 14 days; assay type: organism-based; details: in vivo, 336 h, time 14 day
[21] = Acute toxicity in Albino Swiss mouse assessed as change in urine color at 300 mg/kg, po administered as single dose measured after 14 days; assay type: organism-based; details: in vivo, 336 h, time 14 day
[22] = Acute toxicity in Albino Swiss mouse assessed as change in defecation at 300 mg/kg, po administered as single dose measured after 14 days; assay type: organism-based; details: in vivo, 336 h, time 14 day
[23] = Acute toxicity in Albino Swiss mouse assessed as change in diarrhea at 300 mg/kg, po administered as single dose measured after 14 days; assay type: organism-based; details: in vivo, 336 h, time 14 day
[24] = Acute toxicity in Albino Swiss mouse assessed as contortions at 300 mg/kg, po administered as single dose measured after 14 days; assay type: organism-based; details: in vivo, 336 h, time 14 day
[25] = Acute toxicity in Albino Swiss mouse assessed as escape reaction at 300 mg/kg, po administered as single dose measured after 14 days; assay type: organism-based; details: in vivo, 336 h, time 14 day
[26] = Acute toxicity in Albino Swiss mouse assessed as aggressiveness at 300 mg/kg, po administered as single dose measured after 14 days; assay type: organism-based; details: in vivo, 336 h, time 14 day
[27] = Acute toxicity in Albino Swiss mouse assessed as change in relative weight of liver at 300 mg/kg, po administered as single dose measured after 14 days; assay type: organism-based; details: in vivo, 336 h, time 14 day
[28] = Acute toxicity in Albino Swiss mouse assessed as change in relative weight of kidney at 300 mg/kg, po administered as single dose measured after 14 days; assay type: organism-based; details: in vivo, 336 h, time 14 day
[29] = Acute toxicity in Albino Swiss mouse assessed as change in relative weight of spleen at 300 mg/kg, po administered as single dose measured after 14 days; assay type: organism-based; details: in vivo, 336 h, time 14 day
Plasmodium berghei [30] = assay: Antimalarial activity against Plasmodium berghei ANKA infected in Albino Swiss mouse assessed as half-survival time at 30 mg/kg, po administered for 4 consecutive days measured for 30 days (reference value: 16 day); assay type: functional; details: time 30 day
[31] = Acute toxicity in Albino Swiss mouse assessed as necrosis of hepatocytes at 300 mg/kg, po administered as single dose measured after 14 days by H and E staining based analysis; assay type: organism-based; details: in vivo, 336 h, time 14 day
[32] = Acute toxicity in Albino Swiss mouse assessed as acidophilic cytoplasm with macro-vacuoles in liver at 300 mg/kg, po administered as single dose measured after 14 days by H and E staining based analysis; assay type: organism-based; details: in vivo, 336 h, time 14 day
[33] = Acute toxicity in Albino Swiss mouse assessed as acidophilic cytoplasm with micro-steatosis in liver at 300 mg/kg, po administered as single dose measured after 14 days by H and E staining based analysis; assay type: organism-based; details: in vivo, 336 h, time 14 day
[34] = Acute toxicity in Albino Swiss mouse assessed as granular degeneration in liver at 300 mg/kg, po administered as single dose measured after 14 days by H and E staining based analysis; assay type: organism-based; details: in vivo, 336 h, time 14 day
[35] = Acute toxicity in Albino Swiss mouse assessed as congestion of globular center vein in liver at 300 mg/kg, po administered as single dose measured after 14 days by H and E staining based analysis; assay type: organism-based; details: in vivo, 336 h, time 14 day
[36] = Acute toxicity in Albino Swiss mouse assessed as congestion of hepatic portal vein in liver at 300 mg/kg, po administered as single dose measured after 14 days by H and E staining based analysis; assay type: organism-based; details: in vivo, 336 h, time 14 day
[37] = Acute toxicity in Albino Swiss mouse assessed as atrophic glomerulus with congested capillaries in kidney at 300 mg/kg, po administered as single dose measured after 14 days by H and E staining based analysis; assay type: organism-based; details: in vivo, 336 h, time 14 day
[38] = Acute toxicity in Albino Swiss mouse assessed as mesangial cells reduction in kidney at 300 mg/kg, po administered as single dose measured after 14 days by H and E staining based analysis; assay type: organism-based; details: in vivo, 336 h, time 14 day
[39] = Acute toxicity in Albino Swiss mouse assessed as podocytes with discrete thickening of basal membrane in kidney at 300 mg/kg, po administered as single dose measured after 14 days by H and E staining based analysis; assay type: organism-based; details: in vivo, 336 h, time 14 day
[40] = Acute toxicity in Albino Swiss mouse assessed as recurrent tubules with loss of polarity in kidney at 300 mg/kg, po administered as single dose measured after 14 days by H and E staining based analysis; assay type: organism-based; details: in vivo, 336 h, time 14 day
[41] = Acute toxicity in Albino Swiss mouse assessed as hyperplasia in spleen at 300 mg/kg, po administered as single dose measured after 14 days by H and E staining based analysis; assay type: organism-based; details: in vivo, 336 h, time 14 day
[42] = Acute toxicity in Albino Swiss mouse assessed as fusion of lymphoid follicles in spleen at 300 mg/kg, po administered as single dose measured after 14 days by H and E staining based analysis; assay type: organism-based; details: in vivo, 336 h, time 14 day
[43] = Acute toxicity in Albino Swiss mouse assessed as developmment-delimiting germinal center in spleen at 300 mg/kg, po administered as single dose measured after 14 days by H and E staining based analysis; assay type: organism-based; details: in vivo, 336 h, time 14 day
[44] = Acute toxicity in Albino Swiss mouse assessed as activated macrophages in spleen at 300 mg/kg, po administered as single dose measured after 14 days by H and E staining based analysis; assay type: organism-based; details: in vivo, 336 h, time 14 day
[45] = Acute toxicity in Albino Swiss mouse assessed as distribution of hemosiderophages in parenchyma of spleen at 300 mg/kg, po administered as single dose measured after 14 days by H and E staining based analysis; assay type: organism-based; details: in vivo, 336 h, time 14 day
Plasmodium berghei [46] = assay: Antimalarial activity against Plasmodium berghei ANKA infected in Albino Swiss mouse assessed as reduction in parasitemia at 30 mg/kg, po administered for 4 consecutive days measured after day 5 relative to control; assay type: functional; set-up: scale not given: the % may be the effect or the level left; details: time 5 day
Plasmodium berghei [47] = assay: Antimalarial activity against Plasmodium berghei ANKA infected in Albino Swiss mouse assessed as reduction in parasitemia at 30 mg/kg, po administered for 4 consecutive days measured after day 7 relative to control; assay type: functional; set-up: scale not given: the % may be the effect or the level left; details: time 7 day
[48] = Toxicity in Albino Swiss mouse infected with Plasmodium berghei ANKA assessed as animal survival at 30 mg/kg, po administered for 4 consecutive days measured for 14 days relative to control; assay type: organism-based; details: in vivo, time 14 day

`O=C1C=C(NCCn2cc(C3(O)CCCCC3)nn2)C(=O)c2ccccc21` gave a pIC50 (Plasmodium falciparum [1]) of 5.57, a CC50 (HepG2) of 441 µM and a CC50 at 24 h [2] of 1340 µM. The selectivity ratio [3] was 163, the selectivity ratio [4] was 495 and the logP [5] was 2.55. For the same compound, the hemolysis at 1 h [6] was under 40%, the hemolysis at 1 h, up to 1000 µM [7] was over 40% and the Activity (Plasmodium falciparum [8]) was “Active”. For the same compound, the Activity (Plasmodium falciparum [9]) was “Active”, the Activity (Plasmodium falciparum [10]) was “Active” and the Activity (Plasmodium falciparum [11]) was “Active”. The Activity [12] was “Non-Toxic”, the Activity [13] was “Non-Toxic” and the Activity [14] was “Non-Toxic”. For the same compound, the Activity [15] was “Non-Toxic”, the Activity [16] was “Non-Toxic” and the Activity [17] was “Non-Toxic”. For the same compound, the Activity [18] was “Non-Toxic”, the Activity [19] was “Non-Toxic” and the Activity [20] was “Non-Toxic”. For the same compound, the Activity [21] was “Non-Toxic”, the Activity [22] was “Non-Toxic” and the Activity [23] was “Non-Toxic”. The Activity [24] was “Non-Toxic”, the Activity [25] was “Non-Toxic” and the Activity [26] was “Non-Toxic”. The Activity [27] was “Non-Toxic”, the Activity [28] was “Non-Toxic” and the Activity [29] was “Non-Toxic”. For the same compound, the Survival (Plasmodium berghei [30]) was 38.5 days, the Activity [31] was “Toxic” and the Activity [32] was “Toxic”. The Activity [33] was “Toxic”, the Activity [34] was “Toxic” and the Activity [35] was “Toxic”. The Activity [36] was “Toxic”, the Activity [37] was “Toxic” and the Activity [38] was “Toxic”. For the same compound, the Activity [39] was “Toxic”, the Activity [40] was “Toxic” and the Activity [41] was “Toxic”. For the same compound, the Activity [42] was “Toxic”, the Activity [43] was “Toxic” and the Activity [44] was “Toxic”. For the same compound, the Activity [45] was “Toxic”, the Activity (Plasmodium berghei [46]) was 38.5% and the Activity (Plasmodium berghei [47]) was 35%. It also gave a survival at 336 h [48] of 100%.
